Source: patent US20240228474A1, “ANTIBACTERIAL COMPOUND” (DISCUVA LIMITED, priority 2021, published 2024)
Values after ≈ are worked out from the molar mass of the structure shown.

Legend:
[1] = system: 44 ligands (including receptors, transporters, ion channels, enzymes and kinases); assay: In vitro safety pharmacology binding assays (CEREP profile); details: 10 μM, 44 ligands tested
Experimental: In vitro pharmacology binding assays were carried out for compound (I), comparative compound (II) and comparative compound (III) to evaluate the percentage of inhibition against 44 ligands (including receptors, transporters, ion channels, enzymes and kinases) at a concentration of 10 μM of compound (I), comparative compound (II) or comparative compound (III). Compound binding was calculated as a percentage of inhibition of the binding of a radioactively labelled ligand specific for each target. Results showing an inhibition higher than 50% are considered to represent discernible effects of compound (I), comparative compound (II) or comparative compound (III). […] The in vitro pharmacology binding assays for compound (I) and comparative compounds (II) and (III) was carried out separately over different days, and compared in FIGS. 1a, 1b, 1c, and 1d.

[2] = Lipophilicity, Log P measured with SiriusT3 (octanol titration); assay type: physicochemical; details: octanol / aqueous sample solution
Experimental: Log P values of compound (I) and comparative compound (III) were measured using the SiriusT3 instrument from Sirius Analytical by performing an acid-based titration and measuring the shift in pKa when the sample solution is in contact with an immiscible solvent (octanol). Log P for the comparative compound (II) was calculated using Marvin (physico-chemical calculation software). The lipophilicity data for compound (I) and comparative compounds (II) and (III) was collected in separate experiments carried out on different days, and compared in Table 5.

[3] = system: E. coli UT189; assay: Further murine urinary tract infection study, intravenous infusion; assay type: in vivo; details: 96 h
Experimental: Compound (I) was evaluated in further proof-of-concept studies in murine models for the treatment of a respiratory infection with Gram-negative bacteria of the order Enterobacterales, and a urinary tract infection with Gram-negative bacteria of the order Enterobacterales. Each dot, triangle or square indicator represents a single mouse. LOD refers to the limit of detection of the bacteria. […] Each of the proof-of-concept studies was carried out separately. By vehicle is meant pharmaceutically acceptable excipient or carrier. For the further proof-of-concept study for the treatment of a urinary tract infection with Enterobacterales, female C3H/HeN mice were infected with E. coli UT189. Twenty-four hours after infection (‘pre-treatment’ in FIGS. 6a-c), mice were either treated with a vehicle control (20% hydroxypropyl β cyclodextrin) containing no compound (I), or a vehicle (20% hydroxypropyl β cyclodextrin) containing compound (I), administered by intravenous infusion for 1 hour (QD) with a dose of 20 mg/kg of compound (I). For some mice who received vehicle containing compound (I), an additional 1-hour continuous intravenous infusion was administered 5 hours after the time at which the first administration begun (BID, 5 hrs apart). The once or twice daily administration was continued for three days. For QD, administration took place between 24 to 25 hours, 48 to 49 hours, and 72 to 73 hours after infection, and for BID, administration took place between 24 to 25 hours, 29 to 30 hours, 48 to 49 hours, 53 to 54 hours, 72 to 73 hours and 77 to 78 hours after infection.

[4] = Permeability; assay type: in vitro ADME
[5] = system: Klebsiella pneumoniae (NCTC 13438); assay: MIC by broth microdilution (CLSI); assay type: cell-based; details: NCTC13438, planktonic bacteria, 20-24 hour incubation
Experimental: (§1) Minimum Inhibitory Concentrations (MICs) versus Escherichia coli (NCTC 13441) and Klebsiella pneumoniae (NCTC 13438) (planktonic bacteria) were determined by the broth microdilution procedure in line with the guidelines of the Clinical and Laboratory Standards Institute (Clinical and Laboratory Standards Institute. Methods for Dilution Antimicrobial Susceptibility Tests for Bacteria That Grow Aerobically, Approved Standard-Eleventh Edition, CLSI document M07, 11 Jan. 2018). The broth dilution method involved a two-fold serial dilution of compounds in 96-well microtitre plates, giving a final concentration range of 0.39-200 μM and a maximum final concentration of 2% DMSO. The bacterial strains tested were Escherichia coli (NCTC 13441) and Klebsiella pneumoniae (NCTC 13438). Strains were grown in cation-adjusted Müller-Hinton broth or on Luria Bertani agar at 37° C. in an ambient atmosphere. The MIC (μM) was determined as the lowest concentration of compound that inhibits growth following a 20-24 hour incubation period.

[6] = system: Escherichia coli (NCTC 13441); assay: MIC by broth microdilution (CLSI); assay type: cell-based; details: NCTC13441, planktonic bacteria, 20-24 hour incubation
Experimental: as §1

[7] = system: Proteus mirabilis (DSM 4479); assay: MIC by broth microdilution (CLSI); assay type: cell-based; details: DSM4479
Experimental: as §1
Minimum Inhibitory Concentrations (MICs) versus Proteus mirabilis (DSM 4479) were determined for compound (I) and comparative compounds (II) and (III) using the methodology outlined above.

[8] = system: E. coli UT189; assay: Murine urinary tract infection proof-of-concept study, IV bolus; assay type: in vivo
Experimental: Compound (I) and comparative compound (III) were evaluated in proof-of-concept studies in murine models for the treatment of a respiratory infection with Gram-negative bacteria of the order Enterobacterales, a bacteraemia or bloodstream infection with Gram-negative bacteria of the order Enterobacterales, and a urinary tract infection with Gram-negative bacteria of the order Enterobacterales. Each dot, triangle or square indicator represents a single mouse. LOD refers to the limit of detection of the bacteria. […] Each of the proof-of-concept studies was carried out separately. By vehicle is meant pharmaceutically acceptable carrier or excipient. For the proof-of-concept study for the treatment of a urinary tract infection with Enterobacterales, female C3H/HeN mice were infected with E. coli UT189. Twenty-four hours after infection (‘pre-treatment’ in FIGS. 4a-c), a vehicle (20% hydroxypropyl β cyclodextrin) containing no compound (I) or comparative compound (III), or a vehicle (20% hydroxypropyl β cyclodextrin) containing compound (I) or comparative compound (III), was administered by IV bolus of 20 mg/kg, TID (8 hrs apart), over 3 days.

[9] = 1 h IV infusion 20 mg/kg BID (5 hrs apart) for three days
[10] = 1 h IV infusion 20 mg/kg QD for three days
[11] = IV bolus 20 mg/kg TID over 3 days, 96 h after initial infection
[12] = difference in log reduction, 96 h

## Cc1cnccc1-c1[nH]c(N)nc1-c1ccc2c(c1)N(C(=O)C(C)(C)N)CCO2 [Compound (I), 2-amino-1-(6-(2-amino-5-(3-methylpyridin-4-yl)-1H-imidazol-4-yl)-2,3-dihydro-4H-benzo[b][1,4]oxazin-4-yl)-2-methylpropan-1-one]
[1]
  ligands with inhibition higher than 50%: only a single ligand
[2]
  logP: 1.6
[3]; [9]
  reduction of bacterial burden in the bladder compared to vehicle: 5.84 log
  reduction of bacterial burden in the kidney compared to vehicle: 4.3 log
  reduction of bacterial burden in the urine compared to vehicle: 5.87 log
[3]; [10]
  reduction of bacterial burden in the bladder compared to vehicle: 5.01 log
  reduction of bacterial burden in the kidney compared to vehicle: 3.17 log
[3]; BID (5 hrs apart)
  bacterial burden in the bladder at end of study: below the limit of detection (LOD)
  bacterial burden in the kidney at end of study: below the limit of detection (LOD)
  bacterial burden in the urine at end of study: below the limit of detection (LOD)
[3]; QD
  bacterial burden in the bladder at end of study: below the limit of detection (LOD)
  bacterial burden in the urine at end of study: below the limit of detection (LOD)
[3]; female C3H/HeN mice, 1 h IV infusion 20 mg/kg QD for three days
  reduction of bacterial burden in the urine compared to vehicle: 4.86 log
[4]
  permeability: good permeability
[5]
  MIC: 1.56 to 3.13 µM (≈ 0.612 to 1.23 µg/mL)
[6]
  MIC: ≤ 0.39 µM
[7]
  MIC: 25 µM (≈ 9.81 µg/mL)
[8]; IV bolus 20 mg/kg TID over 3 days, 96 h
  bacterial burden in the urine at end of study: below the limit of detection (LOD)
[8]; [11]
  reduction of bacterial burden in the bladder compared to vehicle: 5.67 log
  reduction of bacterial burden in the kidney compared to vehicle: 4.73 log
[8]; [12]
  more efficacious than comparative compound (III), bladder: 3 log
  more efficacious than comparative compound (III), urine: 3 log
[8]; female C3H/HeN mice, IV bolus 20 mg/kg TID over 3 days, 96 h after initial infection
  reduction of bacterial burden in the urine compared to vehicle: 6.59 log
